{"source": "ChEMBL document CHEMBL5226375", "about": "“Synthesis and Comprehensive in Vivo Activity Profiling of Olean-12-en-28-ol, 3β-Pentacosanoate in Experimental Autoimmune Encephalomyelitis: A Natural Remyelinating and Anti-Inflammatory Agent” (J Nat Prod, 2023)", "key": {"Mus musculus [1]": {"tested_on": "Mus musculus", "test": "Anti-inflammatory activity against MOG35-55-induced experimental autoimmune encephalomyelitis C57BL/6 mouse model assessed as fold change in NFKB gene expression in brain at 300 mg/kg/day, ig for 14 days starting from 12th day of immunization by RT-qPCR analysis relative to control", "type": "functional", "conditions": "time 14 day"}, "Mus musculus [2]": {"tested_on": "Mus musculus", "test": "Anti-inflammatory activity against MOG35-55-induced experimental autoimmune encephalomyelitis C57BL/6 mouse model assessed as fold change in CD4 gene expression in brain at 600 mg/kg/day, ig for 14 days starting from 12th day of immunization by RT-qPCR analysis relative to control", "type": "functional", "conditions": "time 14 day"}, "Mus musculus [3]": {"tested_on": "Mus musculus", "test": "(§1) Anti-inflammatory activity against MOG35-55-induced experimental autoimmune encephalomyelitis C57BL/6 mouse model assessed as reduction in EAE symptoms by measuring reduction in clinical score at 300 to 600 mg/kg/day, ig starting from 12th day of immunization and measured on day 14 post-immunization", "type": "functional, organism-based", "conditions": "dose 300-600 mg/kg/day, time 2.0 day"}, "Mus musculus [4]": {"tested_on": "Mus musculus", "test": "Anti-inflammatory activity against MOG35-55-induced experimental autoimmune encephalomyelitis C57BL/6 mouse model assessed as fold change in PLP gene expression in brain at 600 mg/kg/day, ig for 14 days starting from 12th day of immunization by RT-qPCR analysis relative to control", "type": "functional", "conditions": "time 14 day"}, "Mus musculus [5]": {"tested_on": "Mus musculus", "test": "Anti-inflammatory activity against MOG35-55-induced experimental autoimmune encephalomyelitis C57BL/6 mouse model assessed as fold change in HIF1A gene expression in brain at 600 mg/kg/day, ig for 14 days starting from 12th day of immunization by RT-qPCR analysis relative to control", "type": "functional", "conditions": "time 14 day"}, "Mus musculus [6]": {"tested_on": "Mus musculus", "test": "Anti-inflammatory activity against MOG35-55-induced experimental autoimmune encephalomyelitis C57BL/6 mouse model assessed as fold change in TNF-alpha gene expression in brain at 600 mg/kg/day, ig for 14 days starting from 12th day of immunization by RT-qPCR analysis relative to control", "type": "functional", "conditions": "time 14 day"}, "Mus musculus [7]": {"tested_on": "Mus musculus", "test": "Anti-inflammatory activity against MOG35-55-induced experimental autoimmune encephalomyelitis C57BL/6 mouse model assessed as methylation of CpG sites of IL11 gene promoter in brain at 600 mg/kg, ig for 14 days starting from 12th day of immunization by PCR analysis (reference value: 61.1 +/-4%)", "type": "functional", "conditions": "time 14 day"}, "Mus musculus [8]": {"tested_on": "Mus musculus", "test": "Anti-inflammatory activity against MOG35-55-induced experimental autoimmune encephalomyelitis C57BL/6 mouse model assessed as methylation of CpG sites of IL10RA gene promoter in brain at 600 mg/kg, ig for 14 days starting from 12th day of immunization by PCR analysis (reference value: 34.9 +/-4%)", "type": "functional", "conditions": "time 14 day"}, "Mus musculus [9]": {"tested_on": "Mus musculus", "test": "Anti-inflammatory activity against MOG35-55-induced experimental autoimmune encephalomyelitis C57BL/6 mouse model assessed as methylation of CpG sites of SOCS5 gene promoter in brain at 600 mg/kg, ig for 14 days starting from 12th day of immunization by PCR analysis (reference value: 10.6 +/-4%)", "type": "functional", "conditions": "time 14 day"}, "Mus musculus [10]": {"tested_on": "Mus musculus", "test": "Anti-inflammatory activity against MOG35-55-induced experimental autoimmune encephalomyelitis C57BL/6 mouse model assessed as fold change in C1S gene expression in brain at 300 mg/kg/day, ig for 14 days starting from 12th day of immunization by RT-qPCR analysis relative to control", "type": "functional", "conditions": "time 14 day"}, "Mus musculus [11]": {"tested_on": "Mus musculus", "test": "Anti-inflammatory activity against MOG35-55-induced experimental autoimmune encephalomyelitis C57BL/6 mouse model assessed as reduction in CXCL9 protein expression in brain at 300 to 600 mg/kg/day, ig for 14 days starting from 12th day of immunization by western blot analysis", "type": "functional, organism-based", "conditions": "dose 300-600 mg/kg/day, time 14.0 day"}, "Mus musculus [12]": {"tested_on": "Mus musculus", "test": "Anti-inflammatory activity against MOG35-55-induced experimental autoimmune encephalomyelitis C57BL/6 mouse model assessed as reduction in serum […] cytokine level by measuring reduction in IL-17 level at 0.3 mg/kg/day, ig for 14 days starting from 12th day of immunization by ELISA", "type": "functional, organism-based", "conditions": "time 14.0 day"}, "Mus musculus [13]": {"tested_on": "Mus musculus", "test": "as §1, with “in cumulative scores” for “in clinical score”, “at 0.3” for “at 300 to 600”, “ig for 14 days” for “ig”, “measured from” for “measured on”, “day 12 to 38” for “day 14”", "type": "functional, organism-based", "conditions": "time 1-26 day"}, "Mus musculus [14]": {"tested_on": "Mus musculus", "test": "Anti-inflammatory activity against MOG35-55-induced experimental autoimmune encephalomyelitis C57BL/6 mouse model assessed as fold change in H2EB1 (HLA-DRB1) gene expression in brain at 0.15 mg/kg/day, ig for 14 days starting from 12th day of immunization by RT-qPCR analysis relative to control", "type": "functional", "conditions": "time 14 day"}, "Mus musculus [15]": {"tested_on": "Mus musculus", "test": "Anti-inflammatory activity against MOG35-55-induced experimental autoimmune encephalomyelitis C57BL/6 mouse model assessed as fold change in TGFB1 gene expression in brain at 0.15 mg/kg/day, ig for 14 days starting from 12th day of immunization by RT-qPCR analysis relative to control", "type": "functional", "conditions": "time 14 day"}, "Mus musculus [16]": {"tested_on": "Mus musculus", "test": "Anti-inflammatory activity against MOG35-55-induced experimental autoimmune encephalomyelitis C57BL/6 mouse model assessed as fold change in STAT3 gene expression in brain at 0.3 mg/kg/day, ig for 14 days starting from 12th day of immunization by RT-qPCR analysis relative to control", "type": "functional", "conditions": "time 14 day"}, "Mus musculus [17]": {"tested_on": "Mus musculus", "test": "Anti-inflammatory activity against MOG35-55-induced experimental autoimmune encephalomyelitis C57BL/6 mouse model assessed as reduction in serum chemokines level by measuring reduction in FASL level at 0.3 mg/kg/day, ig for 14 days starting from 12th day of immunization by ELISA", "type": "functional, organism-based", "conditions": "time 14.0 day"}, "Mus musculus [18]": {"tested_on": "Mus musculus", "test": "Anti-inflammatory activity against MOG35-55-induced experimental autoimmune encephalomyelitis C57BL/6 mouse model assessed as fold change in APP gene expression in brain at 0.15 mg/kg/day, ig for 14 days starting from 12th day of immunization by RT-qPCR analysis relative to control", "type": "functional", "conditions": "time 14 day"}, "Mus musculus [19]": {"tested_on": "Mus musculus", "test": "Anti-inflammatory activity against MOG35-55-induced experimental autoimmune encephalomyelitis C57BL/6 mouse model assessed as fold change in MAG gene expression in brain at 0.15 mg/kg/day, ig for 14 days starting from 12th day of immunization by RT-qPCR analysis relative to control", "type": "functional", "conditions": "time 14 day"}, "Mus musculus [20]": {"tested_on": "Mus musculus", "test": "Anti-inflammatory activity against MOG35-55-induced experimental autoimmune encephalomyelitis C57BL/6 mouse model assessed as fold change in CXCL10 gene expression in brain at 0.3 mg/kg/day, ig for 14 days starting from 12th day of immunization by RT-qPCR analysis relative to control", "type": "functional", "conditions": "time 14 day"}, "Mus musculus [21]": {"tested_on": "Mus musculus", "test": "Anti-inflammatory activity against MOG35-55-induced experimental autoimmune encephalomyelitis C57BL/6 mouse model assessed as reduction in serum Th1 cytokine level by measuring reduction in IL-2 level at 0.3 mg/kg/day, ig for 14 days starting from 12th day of immunization by ELISA", "type": "functional, organism-based", "conditions": "time 14.0 day"}, "Mus musculus [22]": {"tested_on": "Mus musculus", "test": "Anti-inflammatory activity against MOG35-55-induced experimental autoimmune encephalomyelitis C57BL/6 mouse model assessed as fold change in YWHAH gene expression in brain at 0.15 mg/kg/day, ig for 14 days starting from 12th day of immunization by RT-qPCR analysis relative to control", "type": "functional", "conditions": "time 14 day"}, "Mus musculus [23]": {"tested_on": "Mus musculus", "test": "Anti-inflammatory activity against MOG35-55-induced experimental autoimmune encephalomyelitis C57BL/6 mouse model assessed as methylation of CpG sites of […] gene promoter in brain at […], ig for 14 days starting from 12th day of immunization by PCR analysis (reference value: 45 +/-7%)", "type": "functional", "conditions": "time 14 day"}}, "note": "The source made the active and inactive calls. No cut-off for these calls is given here.", "data": [{"smiles": "CCCCCCCCCCCCCCCCCCCCCCCCC(=O)O[C@H]1CC[C@]2(C)[C@H]3CC=C4[C@@H]5CC(C)(C)CC[C@]5(CO)CC[C@@]4(C)[C@]3(C)CC[C@H]2C1(C)C", "values": [{"measurement": "fold change (FC)", "setting": "Mus musculus [1]", "result": 1.62}, {"measurement": "fold change (FC)", "setting": "Mus musculus [2]", "result": 1.55}, {"measurement": "Activity", "setting": "Mus musculus [3]", "result": "Active"}, {"measurement": "fold change (FC)", "setting": "Mus musculus [4]", "result": 1.14}, {"measurement": "fold change (FC)", "setting": "Mus musculus [5]", "result": 1.77}, {"measurement": "fold change (FC)", "setting": "Mus musculus [6]", "result": 1.52}, {"measurement": "Activity", "setting": "Mus musculus [7]", "result": 41.4, "unit": "%"}, {"measurement": "Activity", "setting": "Mus musculus [8]", "result": 32, "unit": "%"}, {"measurement": "Activity", "setting": "Mus musculus [9]", "result": 9.3, "unit": "%"}, {"measurement": "fold change (FC)", "setting": "Mus musculus [10]", "result": 1.63}, {"measurement": "Activity", "setting": "Mus musculus [11]", "result": "Active"}]}, {"smiles": "CCCCCCCCc1ccc(CCC(N)(CO)CO)cc1", "note": "[FINGOLIMOD]", "values": [{"measurement": "Activity", "setting": "Mus musculus [12]", "result": "Active"}, {"measurement": "Activity", "setting": "Mus musculus [13]", "result": "Active"}, {"measurement": "fold change (FC)", "setting": "Mus musculus [14]", "result": 3.85}, {"measurement": "fold change (FC)", "setting": "Mus musculus [15]", "result": 1.86}, {"measurement": "fold change (FC)", "setting": "Mus musculus [16]", "result": 1.87}, {"measurement": "Activity", "setting": "Mus musculus [17]", "result": "Active"}, {"measurement": "fold change (FC)", "setting": "Mus musculus [18]", "result": 1.77}, {"measurement": "fold change (FC)", "setting": "Mus musculus [19]", "result": -1.85}, {"measurement": "fold change (FC)", "setting": "Mus musculus [20]", "result": 2.17}, {"measurement": "Activity", "setting": "Mus musculus [21]", "result": "Active"}, {"measurement": "fold change (FC)", "setting": "Mus musculus [22]", "result": 1.1}, {"measurement": "Activity", "setting": "Mus musculus [23]", "result": 44.9, "unit": "%"}]}]}
